{"source": "paper PMC6927504", "about": "“Screening of House Dust from Chinese Homes for Chemicals with Liver X Receptors Binding Activities and Characterization of Atherosclerotic Activity Using an in Vitro Macrophage Cell Line and ApoE^−/− Mice” (Environmental Health Perspectives, 2019)", "system": "ApoE−/− mice", "experiment": "Atherosclerotic lesion analysis (Oil Red O) in ApoE−/− mouse model", "format": "in vivo", "conditions": "13 weeks, p<0.01; for Area of the atherosclerotic lesion (en face lipid staining), higher than control: high-fat diet", "from_the_text": "All experiments related to animals were approved by the institutional animal care and use committee of Peking University and followed the guidelines for animal experiments of the university as well as for experimental animals in China. The biological effect size of the animal experiments was based on the previous paper ([Negro Silva et al. 2017]). C57BL/6 (12 weeks old) and ApoE^−/− mice (12 weeks old) were obtained from the Beijing Vital River Laboratory Animal Technology Company. Mice used in the experiments were acclimated to the housing unit 2 weeks before they were used for experiments, and they were randomly assigned to control or TPHP treatment groups. Five animals were housed to a cage, and mice were acclimatized to the controlled environment (temperature: 22±2°C; relative humidity: 40–60%; artificial lighting: 12 h:12 h light/dark). Mice received diet and drinking water ad libitum. Body weight (BW) was measured every week during the dosing period. Forty-five C57BL/6 mice and 27 ApoE^−/− mice were used in this study. Animal protocol 1: Male C57BL/6 mice (five mice per group) were fed a basic diet (Laboratory Animal Center of the Academy of Military Medical Sciences, China). On Day 0, mice were stimulated with paraffin oil by intraperitoneal injection. From Day 1 to Day 7, mice were exposed to corn oil (control) or TPHP (dissolved in corn oil) at 40 or 200mg/kg BW by daily oral gavage. The volume of the corn oil or TPHP in corn oil administered was 5mL/kg BW. On Day 8, after the mice were anesthetized by sodium pentobarbital via intramuscular injection, peritoneal macrophages were harvested from peritoneal lavage with 4mL pre-warmed DMEM-F12 (containing 10% FBS) using a 25-gauge needle; 5–10 min later, 3–3.5mL peritoneal fluid was collected, and the cells were isolated by centrifuge at 1,000 rpm for 5 min. […] Considering that this study assessed the effects of short-term exposure to TPHP, whereas humans are exposed to TPHP over a lifelong period, the present study used exposure doses that were higher than that of human exposure from house dust. […]", "data": [{"smiles": "O=P(Oc1ccccc1)(Oc1ccccc1)Oc1ccccc1", "note": "[TPHP, triphenyl phosphate]", "values": [{"measurement": "Atherosclerotic lesion area around the aortic root versus control", "setting": "10 and 40 mg/kg BW", "value": "significantly higher lesion area"}, {"measurement": "Area of the atherosclerotic lesion (en face lipid staining), higher than control", "setting": "10 mg/kg BW oral gavage", "value": 41, "unit": "%"}, {"measurement": "Area of the atherosclerotic lesion (en face lipid staining), higher than control", "setting": "40 mg/kg BW oral gavage", "value": 83, "unit": "%"}]}]}
